Results as given in US10358434B2, “2-(3-pyridinyl)-1H-benzimidazole derivative compound and medicament containing same” (NIHON MEDI-PHYSICS CO., LTD., priority 2014, dated 2019).

Experiments:
[1] = Plasma stability evaluation (TLC analysis); format: in vitro ADME; conditions: 37° C., 60 minutes, TLC analysis
How it was run: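 Radiolabelled compounds were incubated in heparin-treated pooled normal human plasma at 37° C for 60 minutes. After methanol deproteinization and centrifugation, stability was assessed by TLC under the conditions used for each compound's synthesis.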

[2] = In vivo kinetics experiment (radioactivity distribution); design: species or system Wistar male rat; conditions: rat i.v., mean ± SD
How it was run: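 Male Wistar rats (9 weeks) under isoflurane received approximately 1 to 3.7 MBq radiotracer in saline with 1 w/v % ascorbic acid by tail-vein injection. At 10, 30 and 60 min, rats were exsanguinated; blood, organs and remaining body weighed and counted, giving % ID/g and adrenal-to-tissue ratios.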

[3] = tested on: human adrenal gland section expressing aldosterone-producing adenoma; test: In vitro autoradiography using human adrenal adenoma; format: binding; conditions: section of FIG. 17(b)
How it was run: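 Frozen 7-μm sections of human adrenal bearing aldosterone-producing adenoma were immersed 10 min in radioligand (5-33 kBq/mL) in PBS with 1% fatty-acid-free BSA, washed, then exposed to imaging plates for 16-20 h. Equal-area ROI PSL in adenoma (B2) versus normal cortex (B1) gave B2/B1, corrected for nuclide half-life, added activity and exposure time.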

## CCn1c(-c2cncc(Cn3ccnc3)c2)nc2ccc([123I])cc21 [[^123I] 608, 2-[5-{(1H-imidazol-1-yl)methyl}pyridin-3-yl]-1-ethyl-6-[^123I]iodo-1H-benzo[d]imidazole]
[1]
  Radiochemical purity after incubation in human plasma: 88%
[2]; 10 min after administration
  Adrenal gland/blood ratio of radioactivity accumulation: 75.29 ± 24.87
  Adrenal gland/fat ratio of radioactivity accumulation: 90.02 ± 14.66
  Adrenal gland/kidney ratio of radioactivity accumulation: 4.95 ± 1.61
  Adrenal gland/liver ratio of radioactivity accumulation: 2.86 ± 0.42
  Adrenal gland/muscle ratio of radioactivity accumulation: 57.35 ± 15.85
  Adrenal gland/small intestine ratio of radioactivity accumulation: 5.04 ± 0.35
  Radioactivity distribution Adrenal gland: 8.76 ± 2.34 % ID/g
  Radioactivity distribution Bladder (including urine): 0.82 ± 0.43 % ID/g
  Radioactivity distribution Blood: 0.12 ± 0.01 % ID/g
  Radioactivity distribution Fat: 0.10 ± 0.01 % ID/g
  Radioactivity distribution Femur: 0.82 ± 0.05 % ID/g
  Radioactivity distribution Heart: 0.74 ± 0.09 % ID/g
  Radioactivity distribution Kidney: 1.79 ± 0.11 % ID/g
  Radioactivity distribution Large intestine: 0.12 ± 0.01 % ID/g
  Radioactivity distribution Liver: 3.03 ± 0.36 % ID/g
  Radioactivity distribution Lung: 1.11 ± 0.11 % ID/g
  Radioactivity distribution Muscle (lower limbs): 0.15 ± 0.00 % ID/g
  Radioactivity distribution Remaining whole body: 0.29 ± 0.05 % ID/g
  Radioactivity distribution Small intestine: 1.74 ± 0.42 % ID/g
  Radioactivity distribution Spleen: 3.79 ± 1.44 % ID/g
  Radioactivity distribution Stomach: 0.53 ± 0.16 % ID/g
  Radioactivity distribution Testis: 0.07 ± 0.01 % ID/g
  Radioactivity distribution Whole brain: 0.03 ± 0.01 % ID/g
[2]; 30 min after administration
  Adrenal gland/blood ratio of radioactivity accumulation: 172.72 ± 25.00
  Adrenal gland/fat ratio of radioactivity accumulation: 103.83 ± 16.66
  Adrenal gland/kidney ratio of radioactivity accumulation: 5.90 ± 0.47
  Adrenal gland/liver ratio of radioactivity accumulation: 10.03 ± 1.46
  Adrenal gland/muscle ratio of radioactivity accumulation: 65.62 ± 16.66
  Adrenal gland/small intestine ratio of radioactivity accumulation: 3.39 ± 0.42
  Radioactivity distribution Adrenal gland: 10.75 ± 1.11 % ID/g
  Radioactivity distribution Bladder (including urine): 2.70 ± 1.51 % ID/g
  Radioactivity distribution Blood: 0.06 ± 0.01 % ID/g
  Radioactivity distribution Fat: 0.10 ± 0.01 % ID/g
  Radioactivity distribution Femur: 1.17 ± 0.02 % ID/g
  Radioactivity distribution Heart: 0.76 ± 0.16 % ID/g
  Radioactivity distribution Kidney: 1.82 ± 0.08 % ID/g
  Radioactivity distribution Large intestine: 0.11 ± 0.00 % ID/g
  Radioactivity distribution Liver: 1.08 ± 0.13 % ID/g
  Radioactivity distribution Lung: 1.14 ± 0.08 % ID/g
  Radioactivity distribution Muscle (lower limbs): 0.17 ± 0.03 % ID/g
  Radioactivity distribution Remaining whole body: 0.30 ± 0.00 % ID/g
  Radioactivity distribution Small intestine: 3.18 ± 0.18 % ID/g
  Radioactivity distribution Spleen: 4.81 ± 0.73 % ID/g
  Radioactivity distribution Stomach: 1.34 ± 0.66 % ID/g
  Radioactivity distribution Testis: 0.11 ± 0.00 % ID/g
  Radioactivity distribution Whole brain: 0.02 ± 0.00 % ID/g
[2]; 60 min after administration
  Adrenal gland/blood ratio of radioactivity accumulation: 345.58 ± 116.00
  Adrenal gland/fat ratio of radioactivity accumulation: 158.96 ± 131.25
  Adrenal gland/kidney ratio of radioactivity accumulation: 10.46 ± 6.81
  Adrenal gland/liver ratio of radioactivity accumulation: 25.91 ± 10.25
  Adrenal gland/muscle ratio of radioactivity accumulation: 113.23 ± 76.79
  Adrenal gland/small intestine ratio of radioactivity accumulation: 3.39 ± 1.14
  Radioactivity distribution Adrenal gland: 15.22 ± 7.58 % ID/g
  Radioactivity distribution Bladder (including urine): 2.67 ± 0.43 % ID/g
  Radioactivity distribution Blood: 0.04 ± 0.01 % ID/g
  Radioactivity distribution Fat: 0.11 ± 0.04 % ID/g
  Radioactivity distribution Femur: 1.28 ± 0.07 % ID/g
  Radioactivity distribution Heart: 0.72 ± 0.09 % ID/g
  Radioactivity distribution Kidney: 1.55 ± 0.21 % ID/g
  Radioactivity distribution Large intestine: 0.16 ± 0.07 % ID/g
  Radioactivity distribution Liver: 0.57 ± 0.06 % ID/g
  Radioactivity distribution Lung: 0.94 ± 0.08 % ID/g
  Radioactivity distribution Muscle (lower limbs): 0.15 ± 0.03 % ID/g
  Radioactivity distribution Remaining whole body: 0.28 ± 0.01 % ID/g
  Radioactivity distribution Small intestine: 4.35 ± 0.69 % ID/g
  Radioactivity distribution Spleen: 4.13 ± 1.21 % ID/g
  Radioactivity distribution Stomach: 1.15 ± 0.26 % ID/g
  Radioactivity distribution Testis: 0.09 ± 0.01 % ID/g
  Radioactivity distribution Whole brain: 0.02 ± 0.00 % ID/g
[3]
  B2/B1 accumulation ratio: 1.08
[3]; site 71b
  B2 (PSL value, aldosterone-producing adenoma): 3580
[3]; site 72b
  B1 (PSL value, normal adrenal cortex): 3303
